Measured values as given in ChEMBL document CHEMBL1150481, “The inhibition of glutamate racemase by” (Bioorg Med Chem Lett, 1997).

Experiments:
[1] = Ratio of kcat to that of KM was determined
[2] = target: T1, Glutamate racemase (Lactobacillus fermentum) (UniProt Q03469); assay: Enzyme kinetic constant for Glutamate racemase and expressed as Kcat
T1 sequence (whole entry): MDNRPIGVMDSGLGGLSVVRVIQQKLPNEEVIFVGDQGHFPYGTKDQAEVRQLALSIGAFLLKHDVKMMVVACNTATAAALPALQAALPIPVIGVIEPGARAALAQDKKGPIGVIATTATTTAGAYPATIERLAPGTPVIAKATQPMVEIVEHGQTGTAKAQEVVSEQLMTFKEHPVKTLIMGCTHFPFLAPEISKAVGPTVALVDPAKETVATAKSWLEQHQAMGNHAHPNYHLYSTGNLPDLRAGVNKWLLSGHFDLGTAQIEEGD

[3] = Inhibition towards diaminopimelate (DAP) epimerase was determined
[4] = Inhibition towards diaminopimelate (DAP) epimerase was determined and expressed as KI
Glutamate racemase [5] = target: T2, Glutamate racemase (Lactobacillus fermentum, UniProt Q03469); assay: Inhibition towards glutamate racemase was determined and expressed as KI; parameters: species or system Limosilactobacillus fermentum
T2 sequence (Q03469 whole entry): T1 sequence (whole entry)

Glutamate racemase [6] = target: T2, Glutamate racemase; assay: Inhibition towards glutamate racemase from Lactobacillus fermenti was determined and expressed as KI; parameters: species or system Limosilactobacillus fermentum
[7] = substrate: N[C@H](CCC(=O)O)C(=O)O; conditions: Limosilactobacillus fermentum
[8] = substrate: O=C(O)CCC(=O)C(=O)O; assay: Enzyme kinetic constant for Glutamate racemase and expressed as Km

## O=C(O)CCC(=O)C(=O)O
[1]
  k cat/Km: 3200 M⁻¹ s⁻¹
[2]
  k cat: 0.18 s⁻¹

## N[C@H](C(=O)O)[C@H](F)CC[C@H](N)C(=O)O
[3]
  IC50: 10 µM

## NC(CCCC(NO)C(=O)O)C(=O)O (centres undefined)
[4]
  Ki: 5.6 µM

## N[C@@H](CC[C@H](F)[C@@H](N)C(=O)O)C(=O)O
[3]
  IC50: 8 µM

## N[C@H](C(=O)O)[C@@H](F)CC[C@H](N)C(=O)O
[3]
  IC50: 4 µM

## N[C@H](CCC(=O)O)C(=O)O [D-GLUTAMATE]
[1]
  k cat/Km: 3700 M⁻¹ s⁻¹
Glutamate racemase [5]
  Ki: 190 µM
Glutamate racemase [6]
  Ki: 56 µM

## N[C@@H](CCC(=O)O)C(=O)O [GLUTAMIC ACID]
[1]
  k cat/Km: 30 M⁻¹ s⁻¹
Glutamate racemase [6]
  Ki: 28 µM

## N[C@@H](CC[C@@H](F)[C@@H](N)C(=O)O)C(=O)O
[3]
  IC50: 25 µM

B1: Glutamate racemase (Lactobacillus fermentum), Q03469 (protein)
chain: T1 sequence (whole entry)
[7]
  Km: 300 µM
[8]
  Km: 57 µM
